In patent publication US8829194B2, “Crystalline forms of the sodium salt of (4-{4-[5-(6-trifluoromethyl-pyridin-3-ylamino)-pyridin-2-yl]-phenyl}-cyclohexyl)-acetic acid” (Novartis AG, priority 2010, dated 2014):
Read-outs that look alike come from different tables or passages of the source.

Columns and labels:
Assay type in all cases: physicochemical
[1] = Water loss as a function of temperature by TG/DTA (loss on drying, thermal transitions); conditions: for LOD (thermal transitions): DTA signals, temperature at which the water is lost; for Loss On Drying (LOD) (%): total water loss by thermogravimetry, rt-295° C., 10°/min
Text: (ii) Thermogravimetric/Differential Thermal Analysis (TG/DTA) […]
The data listed below show the total water loss (LOD by thermogravimetry (TG)) and thermal transitions (DTA signals) show the temperature at which the water is lost.

[2] = Hygroscopicity (statement, no method given)
[3] = Humidity microbalance analysis (VTI), moisture sorption at 25° C.; conditions: for hygroscopicity / moisture uptake in words: variations in humidity
Text: Thus, Modification C retains a stable weight from 0% relative humidity to 80% relative humidity while Modification A loses water with decreasing humidity and gains moisture with increasing humidity. With Modification C, a re-hydration step and the possible variability in water content between batches may thus be eliminated.
Modification N is particularly suitable for industrial scale-up. It is a crystalline anhydrous form.
Modification O is particularly suitable for industrial scale-up. It is a crystalline anhydrous form.

[4] = Vacuum thermogravimetric analysis (VTGA): drying and re-exposure to ambient conditions; conditions: for hygroscopicity in words: concluded from VTGA re-exposure; for time until sample mass decreases to a steady value (drying complete): vacuum 50 mbar, 50° C., wet solid
Method: The wet solid obtained by filtering the crystallization slurry is placed in a cup placed in a cell (i.e., a small chamber) and suspended form a microbalance; vacuum is applied to the cell, and the chamber is subsequently heated. The sample mass is monitored and recorded continuously, indicating when the sample drying is complete and if moisture uptake occurs when the cell is opened to the ambient atmosphere.
1.1149 g of Modification A solid, 0.089 g of distilled water and 10 mL of acetonitrile are added to a glass vial. The mixture is stirred vigorously at 20° C. for 18 hours. The mixture is filtered using vacuum and the wet cake is dried in a VTGA cell at approximately 50° C. and 20 mbar for approximately 5 hours.
1.2137 g of Modification A solids and 15 mL of anhydrous THF, 99.9%, are added to a glass vial. The mixture is heated to 45° C. with vigorous stirring. After slurrying at 45° C. for approximately 19 hours, the sample is filtered by vacuum and the wet cake is dried using the VTGA at approximately 50° C. and 20 mbar for approximately 5 hours.

[5] = Physical stability of the crystalline forms (relative humidity, absorption-desorption isotherm FIG. 1, temperature, storage); conditions: for physical stability (change into another form): storage / ambient conditions
[6] = Dynamic vapor absorption experiment; conditions: dried product of Example 20
Method: 2.0 g of Modification A, 17 mL of THF and 17 mL of 200-proof ethanol are added to a jacketed 100-mL glass reactor equipped with an overhead stirrer. The mixture is heated to approximately 50° C. with vigorous agitation to obtain a clear solution. To the warm solution, 3 mL of heptanes are added. In a small glass vial, 0.02 g of seed particles (Modification C, prepared from a previous batch) are added to 1 mL of heptanes, and the slurry is sonicated for approximately 1 minute. The seed slurry is then added to the warm solution to obtain a turbid solution at 50° C. To the turbid solution, 35 mL of heptanes are added as follows. First, 5 mL of heptanes are added over a 30-min period, followed by 75-min hold. Subsequently, an additional 30 m L of heptanes are added over 1.5 hours. The resulting thick slurry is cooled to 10° C. in 50 minutes. The slurry is filtered by vacuum, and the wet cake is washed with 25 mL of anhydrous THF and dried at 65° C. and 10 mbar. […] Based on Karl Fisher analysis, the dried solid contained 3.6% water.

[7] = Solubility in common process solvents

SMILES	Mass uptake (% water absorbed) ([3]; 0 % residual humidity) [%]	Mass uptake (% water absorbed) ([3]; 10 % residual humidity) [%]	Mass uptake (% water absorbed) ([3]; 50 % residual humidity) [%]	Mass uptake (% water absorbed) ([3]; 60 % residual humidity) [%]	Mass uptake (% water absorbed) ([3]; 70 % residual humidity) [%]	Mass uptake (% water absorbed) ([3]; 79 % residual humidity) [%]	Mass uptake (% water absorbed) ([3]; 90 % residual humidity) [%]	Mass uptake (% water absorbed) ([3]; 95 % residual humidity) [%]	hygroscopicity / moisture uptake in words [3]	Loss On Drying (LOD) (%) [1] [%]	time until sample mass decreases to a steady value (drying complete) [4]	physical stability (change into another form) [5]	also measured
O=C([O-])C[C@H]1CC[C@H](c2ccc(-c3ccc(Nc4ccc(C(F)(F)F)nc4)cn3)cc2)CC1.[Na+] [Modification K, sodium salt of (4-{4-[5-(6-trifluoromethyl-pyridin-3-ylamino)-pyridin-2-yl]-phenyl}-cyclohexyl)-acetic acid]	–	–	–	–	–	–	–	–	–	–	–	–	LOD (thermal transitions) ([1]; listed as K): 134.5 °C; Loss On Drying (LOD) (%) ([1]; listed as K): 2.4%; hygroscopicity in words [2]: low hygroscopicity
O=C([O-])C[C@H]1CC[C@H](c2ccc(-c3ccc(Nc4ccc(C(F)(F)F)nc4)cn3)cc2)CC1.[Na+] [Modification C, sodium salt of (4-{4-[5-(6-trifluoromethyl-pyridin-3-ylamino)-pyridin-2-yl]-phenyl}-cyclohexyl)-acetic acid]	0.0	0.0	0.1	0.2	0.4	0.8	12.0	15.6	does not lose or gain moisture	2.8	less than 1 hours	does not change into another form under ambient conditions	relative humidity at which moisture gain starts / becomes significant ([3]; listed as Form C): > 80 % relative humidity; LOD (thermal transitions) ([1]; listed as C): 126 °C; LOD (thermal transitions) ([1]; listed as modification C): 126 °C; mass change upon opening the cell to the ambient environment ([4]; Example 17, after drying at 50° C. and 20 mbar, 30%-56% relative humidity): no mass change occurs; mass gain when the dried solid was exposed to air ([4]; Example 18, approximately 15 hours at 20° C. and 43-59% relative humidity): No mass gain was observed; sample mass change upon opening the cell ([4]; after drying, 1000 mbar, ambient temperature): the sample mass does not change; hygroscopicity in words ([4]; listed as Form C): not hygroscopic; temperature above which water is lost ([5]; heating): over 85 °C; hygroscopicity in words [6]: much lower hygroscopicity than Modification A; mass uptake of moisture ([6]; from 0 to 80% relative humidity): 0.3%
O=C([O-])C[C@H]1CC[C@H](c2ccc(-c3ccc(Nc4ccc(C(F)(F)F)nc4)cn3)cc2)CC1.[Na+] [Modification A, sodium salt of (4-{4-[5-(6-trifluoromethyl-pyridin-3-ylamino)-pyridin-2-yl]-phenyl}-cyclohexyl)-acetic acid]	0.0	3.9	12.0	12.0	17.3	17.5	17.4	17.1	takes up much more moisture compared to Modification C	9.1	about 18 hours	converts to another form in samples that have not been refrigerated	relative humidity at which moisture gain starts / becomes significant [3]: 10 % relative humidity; total mass gain due to moisture uptake upon opening the cell ([4]; after drying, 1000 mbar, ambient temperature, plateau at ca. 90 hours): 10.4%; hygroscopicity in words [4]: highly hygroscopic; hygroscopicity in words ([5]; sorption profile FIG. 1): very hygroscopic; solubility in common process solvents [7]: relatively low
